Values belong to the compound of their own block, whether it stands above or below them.
Assay: solvent given as SMILES

Structure (SMILES): Cc1c2oc3c(C)c(N)cc(C(=O)NC4OC(=O)C(C(C)C)N(C)C(=O)CN(C)C(=O)C5CCCN5C(=O)C(C(C)C)NC4=O)c3nc-2c(C(=O)NC2OC(=O)C(C(C)C)N(C)C(=O)CN(C)C(=O)C3CCCN3C(=O)C(C(C)C)NC2=O)c(N)c1=O (stereo unspecified)
absorption maximum (in C1CCOC1): 524.93 nm | absorption maximum (in CC#N): 516.03 nm | absorption maximum (in CC(=O)O): 521 nm | absorption maximum (in CC(C)=O): 522.69 nm | absorption maximum (in CCCCO): 532.67 nm | absorption maximum (in CCCCOC(C)=O): 524.07 nm | absorption maximum (in CCCO): 533.23 nm | absorption maximum (in CCN(CC)CC): 534.89 nm | absorption maximum (in CCO): 531.93 nm | absorption maximum (in CCOC(C)=O): 522.62 nm | absorption maximum (in CN(C)C=O): 535.18 nm | absorption maximum (in CO): 529.7 nm | absorption maximum (in CS(C)=O): 540.29 nm | absorption maximum (in Cc1ccccc1): 528.44 nm | absorption maximum (in ClC(Cl)Cl): 520.12 nm | absorption maximum (in ClCCCl): 517.19 nm | absorption maximum (in O): 514.17 nm | absorption maximum (in O=[N+]([O-])c1ccccc1): 534 nm | absorption maximum (in c1ccccc1): 522.11 nm | absorption maximum (in c1ccncc1): 541.16 nm

absorption maximum (in ClCCl): 356 nm
Structure (SMILES): c1ccc(N(c2ccccc2)c2ccc(-c3ccc4c(c3)C3(c5cc(-c6ccc(N(c7ccccc7)c7ccccc7)cc6)ccc5S4)c4ccccc4-c4ccccc43)cc2)cc1

absorption maximum (in CO): 753 nm | absorption maximum (in O): 748 nm
Structure (SMILES): CC1(C)C(/C=C/C=C/C=C/C=C2/N(CCCCCC(=O)O)c3ccc(S(=O)(=O)[O-])cc3C2(C)C)=[N+](CCCCCC(=O)O)c2ccc(S(=O)(=O)[O-])cc21

absorption maximum (in CS(C)=O): 405 nm
Structure (SMILES): Cc1cccn2c1cc1c3ccccc3nc(-c3ccc(Cl)o3)c12

Structure (SMILES): c1cc2cc(c1)c1cccc(c1)c1ccc3ccc4ccc(cc4c3c1)c1cccc(c1)c1cccc2c1
absorption maximum (in Cc1ccccc1): 343 nm

absorption maximum (in CC#N): 415 nm
Structure (SMILES): COc1cc2cc(/C=C/c3ccc(/C=C/c4ccc(/C=C(\C#N)C(=O)O)cc4)cc3)c(=O)oc2cc1OC

Structure (SMILES): c1cc2ccc3cccc4ccc(c1)c2c34
absorption maximum (in C1CCCCC1): 334 nm | absorption maximum (in CC#N): 335 nm | absorption maximum (in CCCCCC): 330 nm | absorption maximum (in CCO): 334 nm | absorption maximum (in CCOC(C)=O): 335 nm | absorption maximum (in CO): 330 nm | absorption maximum (in Cc1ccccc1): 362 nm | absorption maximum (in ClC(Cl)Cl): 337 nm | absorption maximum (in ClCCl): 333 nm

absorption maximum (in CCO): 340.03 nm
Structure (SMILES): C[n+]1c2c(c(-c3ccccc3)c3c1CCCC3)CCCC2

absorption maximum (in C1CCCCC1): 344 nm | absorption maximum (in C1CCOC1): 348 nm | absorption maximum (in C1COCCO1): 347 nm | absorption maximum (in CC#N): 340 nm | absorption maximum (in CC(C)(C)O): 350 nm | absorption maximum (in CC(C)O): 347 nm | absorption maximum (in CCCCCC): 342 nm | absorption maximum (in CCCCO): 349 nm | absorption maximum (in CCO): 346 nm | absorption maximum (in CCOC(C)=O): 346 nm | absorption maximum (in CN(C)C=O): 351 nm | absorption maximum (in CO): 346 nm | absorption maximum (in CS(C)=O): 352 nm | absorption maximum (in ClC(Cl)Cl): 343 nm | absorption maximum (in ClCCl): 341 nm | absorption maximum (in O): 354 nm | absorption maximum (in OCCO): 346 nm
Structure (SMILES): CCc1ccc(/C=N/c2cc(C(C)C)c(O)cc2C)cc1

absorption maximum (in ClCCl): 402 nm
Structure (SMILES): C(=C\c1ccnc(/C=C/c2ccc(N(c3ccccc3)c3ccccc3)cc2)n1)/c1ccc(N(c2ccccc2)c2ccccc2)cc1

Structure (SMILES): COc1ccccc1-c1nc2c3cccnc3c3ncccc3c2n1-c1ccccc1
absorption maximum (in Cc1ccccc1): 363 nm

absorption maximum (in O): 405 nm
Structure (SMILES): CCOC(=O)CCCCCn1c2ccccc2c(=O)c2cc(N)ccc21

absorption maximum (in ClCCl): 347 nm
Structure (SMILES): CCOC(=O)c1c(-c2cc3cc4c(cc3oc2=O)OC(C)(C)CC4)nn(-c2cccc(C)c2)c1C(=O)OCC

absorption maximum (in ClC(Cl)Cl): 303 nm
Structure (SMILES): COc1ccc(-c2nc(-c3ccc(C)cc3)c3ccccn23)cc1

absorption maximum (in C1CCOC1): 295 nm
Structure (SMILES): Cc1ccc(-c2ccc(-c3ccc(-c4ccc(C)cc4)cc3/C(=C(/c3ccccc3)c3cc(-c4ccc(C)cc4)ccc3-c3ccc(-c4ccc(C)cc4)cc3)c3ccccc3)cc2)cc1

absorption maximum (in C1CCOC1): 339 nm
Structure (SMILES): C1=Cc2ccccc2C(=Cc2ccc(-c3ccc(C=C4c5ccccc5C=Cc5ccccc54)cc3)cc2)c2ccccc21

Structure (SMILES): CCC1=C(C)C(=O)n2c1cc1c(CCC(=O)OC)c(C)c(C)n1c2=O
absorption maximum (in CC#N): 420 nm | absorption maximum (in CC(C)=O): 420 nm | absorption maximum (in CO): 426 nm | absorption maximum (in CS(C)=O): 427 nm | absorption maximum (in ClC(Cl)Cl): 429 nm | absorption maximum (in c1ccccc1): 425 nm

absorption maximum (in ClCCl): 743 nm
Structure (SMILES): Cc1ccc([N+]2=c3c4n(c5ccccc35)[B-](F)(F)[N+](c3ccc(C)cc3)=c3c=4n(c4ccccc34)[B-]2(F)F)cc1

absorption maximum (in C1CCCCC1): 393 nm | absorption maximum (in CO): 397 nm | absorption maximum (in CS(C)=O): 397 nm | absorption maximum (in ClC(Cl)Cl): 396 nm | absorption maximum (in c1ccccc1): 395 nm
Structure (SMILES): CCCCCCCC1=C(C)C(=O)n2c1cc1[nH]c(C(=O)OC)c(C)c1c2=O

absorption maximum (in CN(C)C=O): 400 nm
Structure (SMILES): O=C([O-])c1c2ccccc2c(C(=O)[O-])c2ccccc12

absorption maximum (in O): 295 nm
Structure (SMILES): COc1cc(/C=C/CO)ccc1O

absorption maximum (in ClCCl): 376 nm
Structure (SMILES): COc1ccc(-c2cc3c(ccc4sc(/C=C/c5cccs5)cc43)s2)cc1

absorption maximum (in ClCCl): 394 nm
Structure (SMILES): F[B-]12OC(c3ccccc3)=Nc3cccc([n+]31)N=C(c1ccccc1)O2

absorption maximum (in CCO): 462 nm
Structure (SMILES): CCCCOC(=O)/C(C#N)=C1\C(=O)C([O-])=C1C=C1N(C)c2ccccc2C1(C)C

Structure (SMILES): COc1ccc(N(c2ccc(/C=C(\C)c3ccccc3)cc2)c2ccc(/C=C(\C)c3ccccc3)cc2)cc1
absorption maximum (in Cc1ccccc1): 364 nm

absorption maximum (in ClCCl): 450 nm
Structure (SMILES): CCCCN(CCCC)c1ccc2c#cc3cc4c#cc5ccc(C(F)(F)F)cc5c#cc#cc5cc(C(F)(F)F)ccc5c#cc4cc3c#cc3ccc(N(CCCC)CCCC)cc3c#cc#cc2c1

absorption maximum (in O): 346 nm
Structure (SMILES): O=S(=O)([O-])c1cccc2c([O-])cccc12

absorption maximum (in ClCCl): 400 nm
Structure (SMILES): [O-][n+]1c(/C=C/c2cccs2)nc(N2CCOCC2)c2c1CCCC2

absorption maximum (in CC#N): 396 nm | absorption maximum (in ClCCl): 396 nm
Structure (SMILES): COC(=O)c1cc(=O)n(C)c2cc(-c3cccc(N(C)C)c3)sc12

absorption maximum (in ClC(Cl)Cl): 385 nm
Structure (SMILES): Cc1cc(=O)oc2cc3c4ccc(C(C)(C)C)cc4c4cc(C(C)(C)C)ccc4c3cc12

absorption maximum (in C1CCCCC1): 523.5 nm | absorption maximum (in CC#N): 516.5 nm | absorption maximum (in CCO): 518 nm | absorption maximum (in CCOC(C)=O): 517 nm | absorption maximum (in CO): 516.5 nm | absorption maximum (in OCC(F)(F)F): 513 nm
Structure (SMILES): Cc1ccc(C2=C3C=C(I)C=[N+]3[B-](F)(F)n3cccc32)cc1

absorption maximum (in CC#N): 429 nm
Structure (SMILES): Oc1ccc2ccccc2c1/C=N/c1ccccc1/N=C/c1c(O)ccc2ccccc12

absorption maximum (in CC#N): 351 nm | absorption maximum (in CO): 349 nm | absorption maximum (in CS(C)=O): 357 nm | absorption maximum (in ClC(Cl)Cl): 353 nm
Structure (SMILES): O=C1C=Cc2cc3ccccc3c(=O)n21

absorption maximum (in C1CCCCC1): 405 nm
Structure (SMILES): CCc1ccc2ccc(-c3ccccc3)nn12

Structure (SMILES): COCCC1=Cc2nc1ccc1[nH]c(cc1CCOC)c1nc(c(NC(=O)CCCC(=O)OC)cc3[nH]c2cc3CCOC)C(CCOC)=C1
absorption maximum (in Cc1ccccc1): 670 nm

absorption maximum (in CO): 453 nm
Structure (SMILES): C1=CN2C[n+]3ccc4ccccc4c3N=C2c2ccccc21

Structure (SMILES): COC(=O)C(Cc1ccc2oc(-c3ccc4c(c3)c3ccccc3n4-c3ccccc3)nc2c1)NC(=O)OC(C)(C)C (stereo unspecified)
absorption maximum (in C1CCCCC1): 326 nm | absorption maximum (in C1CCOC1): 327.29 nm | absorption maximum (in C1COCCO1): 327.3 nm | absorption maximum (in CC1CCCO1): 326.9 nm | absorption maximum (in CC1COC(=O)O1): 326 nm | absorption maximum (in CC#N): 325.9 nm | absorption maximum (in CC(C)=O): 325.9 nm | absorption maximum (in CC(C)CC(C)(C)C): 325.1 nm | absorption maximum (in CC(C)CO): 335.8 nm | absorption maximum (in CC(C)O): 327 nm | absorption maximum (in CC(C)OC(C)C): 327.4 nm | absorption maximum (in CC(O)CO): 338 nm | absorption maximum (in CCC(C)CC): 324.4 nm | absorption maximum (in CCCCC): 324.5 nm | absorption maximum (in CCCCCC): 325.3 nm | absorption maximum (in CCCCCCCCC): 326 nm | absorption maximum (in CCCCCCCCCC): 326.2 nm | absorption maximum (in CCCCCCCO): 328.3 nm | absorption maximum (in CCCCCCO): 328.2 nm | absorption maximum (in CCCCCO): 327.3 nm | absorption maximum (in CCCCO): 327.4 nm | absorption maximum (in CCO): 334.69 nm | absorption maximum (in CCOC(C)=O): 325.6 nm | absorption maximum (in CCOCC): 325.3 nm | absorption maximum (in CN(C)C=O): 327.9 nm | absorption maximum (in CO): 334.2 nm | absorption maximum (in COCCOC): 326.8 nm | absorption maximum (in CS(C)=O): 332.6 nm | absorption maximum (in Cc1ccccc1): 328.9 nm | absorption maximum (in Cc1ccccc1C): 329.1 nm | absorption maximum (in ClC(Cl)Cl): 329.7 nm | absorption maximum (in ClCCl): 328.8 nm | absorption maximum (in NC=O): 327.7 nm | absorption maximum (in OC1CCCCC1): 328.6 nm | absorption maximum (in OCCO): 338.9 nm | absorption maximum (in c1ccccc1): 328.8 nm

Structure (SMILES): CCC1=C(C)C2=Cc3c4ccccc4c4n3[B-](c3ccc5ccc6cccc7ccc3c5c67)(Oc3ccccc3-4)[N+]2=C1C (stereo unspecified)
absorption maximum (in CC#N): 622 nm | absorption maximum (in CCCCCC): 627 nm | absorption maximum (in Cc1ccccc1): 630 nm | absorption maximum (in ClCCl): 628 nm

absorption maximum (in ClC(Cl)Cl): 561 nm
Structure (SMILES): CCCCCCCCN1C(=O)c2ccc3c4c(-c5ccc(-n6c7ccccc7c7ccccc76)cc5)cc5c6c(ccc(c7c(-c8ccc(-n9c%10ccccc%10c%10ccccc%109)cc8)cc(c2c37)C1=O)c64)C(=O)N(CCCCCCCC)C5=O

Structure (SMILES): CCOC(=O)c1cc2ccc3ccccc3c2c(C#N)c1N
absorption maximum (in Cc1ccccc1): 435 nm

absorption maximum (in ClCCl): 454 nm
Structure (SMILES): CCCCN(CCCC)c1ccc(C#Cc2cc(C#Cc3ccc(C#N)cc3)c(C#Cc3ccc(N(CCCC)CCCC)cc3)cc2C#Cc2ccc(C#N)cc2)cc1

absorption maximum (in ClC(Cl)Cl): 689 nm
Structure (SMILES): CCCCCCCCCCOc1cc(OCCCCCCCCCC)cc(C2=C3C(/C=C/c4ccc(OC)cc4)=CC(/C=C/c4ccc(OC)cc4)=[N+]3[B-](F)(F)n3c(/C=C/c4ccc(OC)cc4)cc(C=Cc4ccc(OC)cc4)c32)c1

absorption maximum (in ClCCl): 537 nm
Structure (SMILES): COC(=O)/C=C/C1=CC2=C(c3c(C)cc(C)cc3C)c3cccn3[B-](F)(F)[N+]2=C1

absorption maximum (in CS(C)=O): 349 nm
Structure (SMILES): Cc1ccc(-c2nc3sc4ccccc4c3s2)cc1

absorption maximum (in C1CCCCC1): 386 nm
Structure (SMILES): COc1ccc2c3c(c4ccc(OC)cc4c2c1)C1(c2ccccc2-c2ccccc21)c1ccccc1-3

absorption maximum (in C1CCCCC1): 364 nm
Structure (SMILES): C1=Cc2ccc3ccccc3c2N(c2ccccc2)B1c1ccccc1

Source: the Deep4Chem optical property database
